# Assay results as given in ChEMBL document CHEMBL1137293, “Discovery of oxadiazoyl tertiary carbinamine inhibitors of beta-secretase (BACE-1)” (J Med Chem, 2006).
# Target: Beta-secretase 1 (Homo sapiens, UniProt P56817)
# Experiment: Inhibition of BACE1
# Chain of Beta-secretase 1 (P56817 whole entry): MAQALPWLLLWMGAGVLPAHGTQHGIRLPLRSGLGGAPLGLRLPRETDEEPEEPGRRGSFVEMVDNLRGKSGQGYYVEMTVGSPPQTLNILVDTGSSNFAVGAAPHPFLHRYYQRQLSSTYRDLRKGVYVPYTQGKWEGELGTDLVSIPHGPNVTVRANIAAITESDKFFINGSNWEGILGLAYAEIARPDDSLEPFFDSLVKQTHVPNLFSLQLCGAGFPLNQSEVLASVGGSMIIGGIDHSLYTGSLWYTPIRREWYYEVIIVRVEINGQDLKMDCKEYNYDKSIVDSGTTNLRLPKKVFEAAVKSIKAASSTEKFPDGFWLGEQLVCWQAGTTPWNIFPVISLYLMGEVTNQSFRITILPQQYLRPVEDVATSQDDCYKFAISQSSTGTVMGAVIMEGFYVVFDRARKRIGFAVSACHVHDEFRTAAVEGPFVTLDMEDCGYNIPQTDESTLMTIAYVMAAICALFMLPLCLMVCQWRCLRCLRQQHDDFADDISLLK
row,SMILES,IC50
1,C[C@@H](NC(=O)c1cc(COC(=O)[C@](C)(N)Cc2ccccc2)cc(N(C)S(C)(=O)=O)c1)c1ccc(F)cc1,0.027 µM
2,C[C@@H](NC(=O)c1cc(C(=O)NC(CO)(CO)Cc2ccccc2)cc(N(C)S(C)(=O)=O)c1)c1ccc(F)cc1,2.7 µM

# Further lines, results first:
row,IC50,SMILES
1,1.37 µM,C[C@@H](NC(=O)c1cc(COC[C@@](N)(CO)Cc2ccccc2)cc(N(C)S(C)(=O)=O)c1)c1ccc(F)cc1
2,0.43 µM,C[C@@H](NC(=O)c1cc(COC[C@](C)(N)Cc2ccccc2)cc(N(C)S(C)(=O)=O)c1)c1ccc(F)cc1
3,12.5 µM,C[C@@H](NC(=O)c1cc(C2=NC(CO)(Cc3ccccc3)CO2)cc(N(C)S(C)(=O)=O)c1)c1ccc(F)cc1 (stereo not given in full)
